The subject of assay [1] is pSTAT6 in BEAS-2B human cell line. Briefly: Inhibition of IL-13 induced pSTAT6 in BEAS. It is filed as cell-based. As to conditions: for IC50: Homo sapiens, BEAS-2B, 0.5 h, IL-13 trigger, 30 min, parent compound; for Fold difference parent vs predicted acid metabolite: ratio=IC50 predicted acid metabolite/IC50 ester. The protocol:
BEAS-2B human cell line was seeded (100.000 cells/well) and incubated for 48 h at 37° C., 5% CO2, 95% humidity. Compounds were added and incubated 30 min followed by IL-13 as trigger. After 30 min incubation, cells were lysed and pSTAT6 determined by Fastscan phospho-stat6 (Tyr641) sandwich ELISA kit (cell signaling). Inhibitors were tested at 11 consecutive 5-fold dilutions starting from 10 μM (10 μM-[…]) in duplicate. Calculation of IC50 data, curves and QC analysis were made using Excel tools and GraphPadPrism software. QC criteria parameters: Z′≥0.35, Hill Slope range 0.5 to 5, S:B>2.

For a further assay, the target named is T1, JAK3 (Homo sapiens, UniProt P52333).
T1 sequence (P52333 1-1124): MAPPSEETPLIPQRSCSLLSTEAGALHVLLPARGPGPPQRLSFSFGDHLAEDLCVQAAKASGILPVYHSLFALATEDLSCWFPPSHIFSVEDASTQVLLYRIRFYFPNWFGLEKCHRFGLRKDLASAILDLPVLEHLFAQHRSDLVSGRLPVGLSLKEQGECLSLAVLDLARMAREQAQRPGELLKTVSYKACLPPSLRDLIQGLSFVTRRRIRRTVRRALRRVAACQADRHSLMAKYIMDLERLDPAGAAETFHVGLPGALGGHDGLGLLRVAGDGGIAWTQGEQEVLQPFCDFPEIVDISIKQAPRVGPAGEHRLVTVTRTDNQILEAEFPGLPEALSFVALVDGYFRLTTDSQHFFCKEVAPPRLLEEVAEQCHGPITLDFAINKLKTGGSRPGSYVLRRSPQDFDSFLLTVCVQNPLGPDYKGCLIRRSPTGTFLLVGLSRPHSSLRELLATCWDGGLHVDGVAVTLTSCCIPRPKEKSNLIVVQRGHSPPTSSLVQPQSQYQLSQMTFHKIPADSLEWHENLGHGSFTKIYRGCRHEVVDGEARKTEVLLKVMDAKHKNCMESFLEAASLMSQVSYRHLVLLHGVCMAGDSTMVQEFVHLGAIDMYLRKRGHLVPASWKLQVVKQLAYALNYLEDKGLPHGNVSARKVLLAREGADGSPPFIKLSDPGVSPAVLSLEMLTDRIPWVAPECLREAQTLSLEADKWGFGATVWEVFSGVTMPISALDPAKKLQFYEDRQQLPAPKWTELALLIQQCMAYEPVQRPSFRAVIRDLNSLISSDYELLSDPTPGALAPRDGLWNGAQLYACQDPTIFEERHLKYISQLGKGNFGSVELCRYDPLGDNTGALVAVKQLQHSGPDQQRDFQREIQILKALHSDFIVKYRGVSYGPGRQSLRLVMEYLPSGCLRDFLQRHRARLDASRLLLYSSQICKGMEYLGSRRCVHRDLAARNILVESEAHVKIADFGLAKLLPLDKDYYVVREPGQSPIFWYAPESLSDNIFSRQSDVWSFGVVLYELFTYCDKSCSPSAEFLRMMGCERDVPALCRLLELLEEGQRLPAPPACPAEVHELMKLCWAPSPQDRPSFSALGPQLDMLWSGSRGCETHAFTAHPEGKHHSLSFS
Briefly: Biochemical potency on JAK3, TR-FRET (LANCE Ultra kinase assay). As to conditions: ATP corresponding to Km; cell-free; read-out: JAK3 inhibitory activity (pIC50) (converted). The procedure:
(§1) The objective of this study was to assess the capability of compounds to inhibit all 4 JAK isoforms activity in a cell-free environment. Assay for JAK 1, JAK 2, JAK 3 and TYK2 were performed by Time-resolved fluorescence resonance energy transfer (TR-FRET) technology. It consists in the interaction of two labelled binding partners detected by the energy transfer from an excited donor to an acceptor dye and measurement of light emission by the acceptor dye. LANCE Ultra kinase assay was used. In presence of JAK 1, JAK 2, JAK 3 and TYK2 kinases and ATP (corresponding to Km), the ULight peptide substrate (LANCE Ulight-JAK-1 (Tyr1023) Peptide, Perkin Elmer, TRF0121) is phosphorylated. It is then captured by Eu-anti-phospho-substrate antibody (LANCE Eu-W1024 Anti-phosphotyrosine (PT66), Perkin Elmer, AD0069), which bring the Eu-chelate donor and ULight acceptor dyes into close proximity. Upon excitation at 320 nm, the Eu-chelate transfers its energy to the ULight dye, resulting in a fluorescent light emission at 665 nm.
(§2) Serial dilutions of compounds in pure DMSO are prepared from 10 mM DMSO stock solutions. Compounds were tested in 384-well plate for 11 consecutive 5-fold dilutions starting from 20 μM highest concentration (20 μM-[…]). 200 nL of compound were transferred from mother plate to test plate by using Mosquito (TTP labtech). Assay was performed in 384-well Perkin Elmer test plate in 20 μL assay volume (kinase reaction) and 40 μL total volume (stopping reagent and antibody detection reagents). In 10 μL of substrate solution (peptide+ATP) 30/50/20/10 nM of peptide and 20/0.7/0.2/12 μM of ATP were added for JAK 1, JAK 2, JAK 3 and TYK2 respectively. 10 μL of enzyme solution was added to kinase reaction at these concentrations: 0.15/0.083/0.025/0.144 ng/μL of JAK 1, JAK 2, JAK 3 and TYK2 respectively. After shaking and 1.5 h of incubation at r.t., 20 μL of Stop (10 μL EDTA) and Detection mixture (10 μL Europium-anti-phospho antibody, final: 0.5 nM) were added. Reading was performed after 1 h of incubation on a En Vision 2104 reader (Perkin Elmer).
(§3) Calculation of IC50 data, curves and QC analysis was performed by using Excel tool and GraphPadPrism software, v9. Briefly, individual concentration-effect curves are generated by plotting the logarithm of the tested concentration of tested compounds (X) vs. corresponding percent inhibition values (Y) using least squares (ordinary) fit. Best fit IC50 values are calculated using Log (inhibitor) vs. normalized response—Variable slope equation, where Y=100/(1+10^((LogIC50−X)*HillSlope)). QC criteria parameters (Z′, S:B, R2, HillSlope) were checked for every IC50 curve. Calculation of IC50 data, curves and QC analysis were made using Excel tools and GraphPadPrism software. QC criteria parameters: Z′≥0.5, Hill Slope range 0.5 to 5, S:B>2.
In general terms: TR-FRET usually uses a lanthanide donor and a delayed reading to cut background.

The next assay concerns the target TYK2 (Homo sapiens, UniProt P29597). Kind of assay: Biochemical potency on Tyk2, TR-FRET (LANCE Ultra kinase assay). As to conditions: ATP corresponding to Km; cell-free; read-out: TYK2 inhibitory activity (pIC50) (converted). The protocol:
as §1, §2, §3

In another assay the target is JAK2 (Homo sapiens, UniProt O60674). Briefly: Biochemical potency on JAK2, TR-FRET (LANCE Ultra kinase assay). The settings on record: ATP corresponding to Km; cell-free; read-out: JAK2 inhibitory activity (pIC50) (converted). The protocol: as §1, §2, §3
JAK2, sequence (O60674 whole entry): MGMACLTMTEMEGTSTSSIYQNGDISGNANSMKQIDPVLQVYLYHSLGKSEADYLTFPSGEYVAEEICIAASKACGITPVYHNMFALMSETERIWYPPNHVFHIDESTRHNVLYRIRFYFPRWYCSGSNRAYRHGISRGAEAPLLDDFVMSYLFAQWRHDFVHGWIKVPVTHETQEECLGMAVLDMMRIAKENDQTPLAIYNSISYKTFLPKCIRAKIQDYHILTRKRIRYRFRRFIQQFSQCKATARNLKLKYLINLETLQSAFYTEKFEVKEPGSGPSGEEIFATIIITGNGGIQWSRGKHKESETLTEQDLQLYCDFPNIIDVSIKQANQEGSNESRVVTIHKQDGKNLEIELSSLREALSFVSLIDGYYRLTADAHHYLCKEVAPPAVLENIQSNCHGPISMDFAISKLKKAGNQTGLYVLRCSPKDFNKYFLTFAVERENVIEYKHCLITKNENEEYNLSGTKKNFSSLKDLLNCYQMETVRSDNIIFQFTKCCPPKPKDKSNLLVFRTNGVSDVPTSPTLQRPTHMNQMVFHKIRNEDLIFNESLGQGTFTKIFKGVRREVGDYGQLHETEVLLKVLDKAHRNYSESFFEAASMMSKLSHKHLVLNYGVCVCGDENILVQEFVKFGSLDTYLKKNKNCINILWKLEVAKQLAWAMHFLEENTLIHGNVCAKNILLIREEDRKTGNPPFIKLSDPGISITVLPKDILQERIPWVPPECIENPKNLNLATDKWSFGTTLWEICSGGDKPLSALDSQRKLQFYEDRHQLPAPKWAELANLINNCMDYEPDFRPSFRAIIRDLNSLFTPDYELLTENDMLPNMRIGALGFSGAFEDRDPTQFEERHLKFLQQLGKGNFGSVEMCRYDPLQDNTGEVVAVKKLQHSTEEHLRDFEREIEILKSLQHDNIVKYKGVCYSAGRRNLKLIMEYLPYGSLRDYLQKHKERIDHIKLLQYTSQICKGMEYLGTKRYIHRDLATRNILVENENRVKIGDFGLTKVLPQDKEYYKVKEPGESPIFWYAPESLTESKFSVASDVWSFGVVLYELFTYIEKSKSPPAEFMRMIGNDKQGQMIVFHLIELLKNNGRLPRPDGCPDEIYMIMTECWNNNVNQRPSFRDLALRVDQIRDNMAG
A further assay has as its target JAK1 (Homo sapiens, UniProt P23458). Briefly: Biochemical potency on JAK1, TR-FRET (LANCE Ultra kinase assay). The settings on record: ATP corresponding to Km; cell-free; read-out: JAK1 inhibitory activity (pIC50) (converted). The protocol:
as §1, §2, §3

JAK1, sequence (P23458 whole entry): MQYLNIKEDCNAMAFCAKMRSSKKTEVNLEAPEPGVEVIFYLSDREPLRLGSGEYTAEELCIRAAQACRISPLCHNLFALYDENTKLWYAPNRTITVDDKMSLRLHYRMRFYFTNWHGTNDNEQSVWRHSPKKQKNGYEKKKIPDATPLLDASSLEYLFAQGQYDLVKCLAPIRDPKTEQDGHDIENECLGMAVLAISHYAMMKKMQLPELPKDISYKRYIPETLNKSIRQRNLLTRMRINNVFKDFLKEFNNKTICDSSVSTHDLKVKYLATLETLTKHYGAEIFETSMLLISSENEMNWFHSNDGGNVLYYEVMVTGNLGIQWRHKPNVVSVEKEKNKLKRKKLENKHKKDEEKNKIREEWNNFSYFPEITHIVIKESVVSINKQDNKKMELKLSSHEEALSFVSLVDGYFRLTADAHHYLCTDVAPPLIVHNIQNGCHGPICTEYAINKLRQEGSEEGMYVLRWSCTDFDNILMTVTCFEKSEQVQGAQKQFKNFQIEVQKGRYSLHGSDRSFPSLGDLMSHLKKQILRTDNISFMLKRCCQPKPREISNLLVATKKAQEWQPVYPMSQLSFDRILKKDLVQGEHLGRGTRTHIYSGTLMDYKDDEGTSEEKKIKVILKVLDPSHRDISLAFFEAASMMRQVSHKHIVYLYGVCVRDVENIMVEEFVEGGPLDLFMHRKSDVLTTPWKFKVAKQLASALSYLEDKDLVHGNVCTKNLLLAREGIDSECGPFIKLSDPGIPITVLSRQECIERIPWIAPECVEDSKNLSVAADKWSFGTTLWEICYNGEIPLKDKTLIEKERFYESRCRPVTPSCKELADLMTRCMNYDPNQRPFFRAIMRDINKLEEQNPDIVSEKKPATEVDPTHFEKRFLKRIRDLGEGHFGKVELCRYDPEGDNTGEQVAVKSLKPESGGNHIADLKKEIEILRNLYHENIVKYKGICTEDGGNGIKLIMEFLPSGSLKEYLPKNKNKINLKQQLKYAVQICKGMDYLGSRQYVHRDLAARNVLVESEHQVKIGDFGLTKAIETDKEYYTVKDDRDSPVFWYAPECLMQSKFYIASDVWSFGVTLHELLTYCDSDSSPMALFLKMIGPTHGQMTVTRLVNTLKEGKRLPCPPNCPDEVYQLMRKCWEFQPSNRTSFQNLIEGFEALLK
TYK2, sequence (P29597 whole entry): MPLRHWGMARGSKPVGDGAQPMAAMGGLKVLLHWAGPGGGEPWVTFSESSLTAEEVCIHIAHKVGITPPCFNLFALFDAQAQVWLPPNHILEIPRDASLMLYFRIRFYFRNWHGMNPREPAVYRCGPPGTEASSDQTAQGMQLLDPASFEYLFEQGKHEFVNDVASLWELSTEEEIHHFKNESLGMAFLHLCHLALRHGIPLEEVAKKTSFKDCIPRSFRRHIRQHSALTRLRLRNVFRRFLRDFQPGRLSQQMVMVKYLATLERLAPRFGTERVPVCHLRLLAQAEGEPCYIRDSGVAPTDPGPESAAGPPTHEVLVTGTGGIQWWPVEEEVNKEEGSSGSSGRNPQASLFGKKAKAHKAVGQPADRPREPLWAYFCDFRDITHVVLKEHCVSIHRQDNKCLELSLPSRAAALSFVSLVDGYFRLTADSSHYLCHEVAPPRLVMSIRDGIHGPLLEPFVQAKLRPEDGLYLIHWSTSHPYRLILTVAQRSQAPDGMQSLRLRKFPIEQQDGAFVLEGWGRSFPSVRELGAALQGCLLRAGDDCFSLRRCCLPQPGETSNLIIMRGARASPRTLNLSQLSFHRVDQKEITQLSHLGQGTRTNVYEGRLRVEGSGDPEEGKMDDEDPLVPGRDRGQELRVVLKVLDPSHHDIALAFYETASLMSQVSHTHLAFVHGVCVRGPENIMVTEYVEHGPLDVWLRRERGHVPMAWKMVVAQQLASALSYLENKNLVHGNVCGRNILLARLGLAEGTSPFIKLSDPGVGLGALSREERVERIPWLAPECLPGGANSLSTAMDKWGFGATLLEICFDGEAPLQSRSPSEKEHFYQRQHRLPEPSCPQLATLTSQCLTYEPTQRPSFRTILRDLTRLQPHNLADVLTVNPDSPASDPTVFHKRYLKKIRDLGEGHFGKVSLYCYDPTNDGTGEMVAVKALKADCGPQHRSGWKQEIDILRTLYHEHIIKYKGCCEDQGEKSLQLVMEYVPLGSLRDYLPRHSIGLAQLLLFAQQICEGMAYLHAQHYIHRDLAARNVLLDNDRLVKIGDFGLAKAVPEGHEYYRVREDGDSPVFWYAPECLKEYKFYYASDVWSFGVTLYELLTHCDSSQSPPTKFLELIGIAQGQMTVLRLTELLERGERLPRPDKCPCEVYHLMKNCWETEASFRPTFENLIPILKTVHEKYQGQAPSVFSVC

`COc1cc2c(cc1-n1nc(C(=O)NCCN3CC[C@H](C(=O)O[C@@H]4CCN(C)C4)C3)c3cnc(-c4cnn5cccnc45)cc31)OCCN2` [Example 56, (R)-1-methylpyrrolidin-3-yl (S)-1-(2-(1-(6-methoxy-3,4-dihydro-2H-benzo[b][1,4]oxazin-7-yl)-6-(pyrazolo[1,5-a]pyrimidin-3-yl)-1H-pyrazolo[4,3-c]pyridine-3-carboxamido)ethyl)pyrrolidine-3-carboxylate]: the IC50 in assay [1] was 5.01 to 50.1 nM; on JAK3, not above 5.01 nM; on TYK2, 5.01 to 50.1 nM; on JAK2, not above 5.01 nM; on JAK1, not above 5.01 nM. Moreover, in assay [1], the “Fold difference parent vs predicted acid metabolite” value is “kk (100>ratio≥10)”.
For `COc1cc2c(cc1-n1nc(C(=O)NCCN3CCC(C(=O)OC4CCOCC4)CC3)c3cnc(-c4cnn5cccnc45)cc31)OCCN2` [Example 17, tetrahydro-2H-pyran-4-yl 1-(2-(1-(6-methoxy-3,4-dihydro-2H-benzo[b][1,4]oxazin-7-yl)-6-(pyrazolo[1,5-a]pyrimidin-3-yl)-1H-pyrazolo[4,3-c]pyridine-3-carboxamido)ethyl)piperidine-4-carboxylate], the IC50 in assay [1] was not above 5.01 nM; on JAK3 it was not above 5.01 nM; at TYK2 it was 5.01 to 50.1 nM; at JAK2, not above 5.01 nM; on JAK1 it was not above 5.01 nM. In assay [1], the “Fold difference parent vs predicted acid metabolite” value is “kkkk (ratio≥200)”.
On to `CCOC(=O)C1CN(CCNC(=O)c2nn(-c3cc4c(cc3OC)NCCO4)c3cc(-c4cnn5cccnc45)ncc23)C1` [Example 31, ethyl 1-(2-(1-(6-methoxy-3,4-dihydro-2H-benzo[b][1,4]oxazin-7-yl)-6-(pyrazolo[1,5-a]pyrimidin-3-yl)-1H-pyrazolo[4,3-c]pyridine-3-carboxamido)ethyl)azetidine-3-carboxylate], for which the IC50 in assay [1] was 5.01 to 50.1 nM; on JAK3, not above 5.01 nM; at TYK2, 5.01 to 50.1 nM; on JAK2, not above 5.01 nM; at JAK1, not above 5.01 nM.
As to `COc1cc2c(cc1-n1nc(C(=O)NCCCN3CCC(C(=O)OC4CCN(C)CC4)CC3)c3cnc(-c4cnn5cccnc45)cc31)OCCN2` [Example 26, 1-methylpiperidin-4-yl 1-(3-(1-(6-methoxy-3,4-dihydro-2H-benzo[b][1,4]oxazin-7-yl)-6-(pyrazolo[1,5-a]pyrimidin-3-yl)-1H-pyrazolo[4,3-c]pyridine-3-carboxamido)propyl)piperidine-4-carboxylate], the IC50 is 5.01 to 50.1 nM in assay [1]; not above 5.01 nM on JAK3; 5.01 to 50.1 nM on TYK2; not above 5.01 nM on JAK2; 5.01 to 50.1 nM on JAK1.
Consider `COc1cc2c(cc1-n1nc(C(=O)NCCN3CCC(C(=O)OC4CC4)CC3)c3cnc(-c4cnn5cccnc45)cc31)OCCN2` [Example 11, cyclopropyl 1-(2-(1-(6-methoxy-3,4-dihydro-2H-benzo[b][1,4]oxazin-7-yl)-6-(pyrazolo[1,5-a]pyrimidin-3-yl)-1H-pyrazolo[4,3-c]pyridine-3-carboxamido)ethyl)piperidine-4-carboxylate], for which the IC50 in assay [1] is not above 5.01 nM; at JAK3, not above 5.01 nM; at TYK2, 5.01 to 50.1 nM; at JAK2, not above 5.01 nM; on JAK1, not above 5.01 nM. Also, the “Fold difference parent vs predicted acid metabolite” value in assay [1] is reported as “kkkk (ratio≥200)”.
In the case of `COc1cc2c(cc1-n1nc(C(=O)NCCN3CCC(C(=O)OC(C)C)CC3)c3cnc(-c4cnn5cccnc45)cc31)OCCN2` [Example 45, isopropyl 1-(2-(1-(6-methoxy-3,4-dihydro-2H-benzo[b][1,4]oxazin-7-yl)-6-(pyrazolo[1,5-a]pyrimidin-3-yl)-1H-pyrazolo[4,3-c]pyridine-3-carboxamido)ethyl)piperidine-4-carboxylate], the IC50 is not above 5.01 nM in assay [1]; not above 5.01 nM at JAK3; 5.01 to 50.1 nM at TYK2; not above 5.01 nM on JAK2; not above 5.01 nM at JAK1. Moreover, in assay [1], the “Fold difference parent vs predicted acid metabolite” value is “kkkk (ratio≥200)”.
For `CCCOC(=O)CN(C)CCNC(=O)c1nn(-c2cc3c(cc2OC)NCCO3)c2cc(-c3cnn4cccnc34)ncc12` [Example 6, propyl N-(2-(1-(6-methoxy-3,4-dihydro-2H-benzo[b][1,4]oxazin-7-yl)-6-(pyrazolo[1,5-a]pyrimidin-3-yl)-1H-pyrazolo[4,3-c]pyridine-3-carboxamido)ethyl)-N-methylglycinate], the IC50 in assay [1] is 5.01 to 50.1 nM; on JAK3, not above 5.01 nM; on TYK2 it was more than 50.1 nM; at JAK2, not above 5.01 nM; at JAK1 it was 5.01 to 50.1 nM.
In the case of `COc1cc2c(cc1-n1nc(C(=O)NCCN3CCC(C(=O)O[C@H]4CN(C)C[C@@H]4F)CC3)c3cnc(-c4cnn5cccnc45)cc31)OCCN2` [Example 50, (3S,4S)-4-fluoro-1-methylpyrrolidin-3-yl 1-(2-(1-(6-methoxy-3,4-dihydro-2H-benzo[b][1,4]oxazin-7-yl)-6-(pyrazolo[1,5-a]pyrimidin-3-yl)-1H-pyrazolo[4,3-c]pyridine-3-carboxamido)ethyl)piperidine-4-carboxylate], the IC50 is not above 5.01 nM in assay [1]; not above 5.01 nM on JAK3; 5.01 to 50.1 nM at TYK2; not above 5.01 nM on JAK2; not above 5.01 nM on JAK1. Moreover, the “Fold difference parent vs predicted acid metabolite” value in assay [1] was “kkkk (ratio≥200)”.

The record behind these values is patent publication US20260337208A1, “HETEROCYCLIC DERIVATIVES AS JANUS KINASE INHIBITORS” (CHIESI FARMACEUTICI S.P.A., priority 2022, published 2026).
